Experimental findings from article PMC6437697 (Journal of Medicinal Chemistry, 2019) are described below.

What all share (assay): KINOMEscan
Holding throughout (type): binding
What all share (settings): read-out: % control activity remaining

The target in one test is T1, PRKCI (Homo sapiens, UniProt P41743).
T1 construct: purchased Eurofins DiscoverX KINOMEscan
T1 sequence (P41743 1-596): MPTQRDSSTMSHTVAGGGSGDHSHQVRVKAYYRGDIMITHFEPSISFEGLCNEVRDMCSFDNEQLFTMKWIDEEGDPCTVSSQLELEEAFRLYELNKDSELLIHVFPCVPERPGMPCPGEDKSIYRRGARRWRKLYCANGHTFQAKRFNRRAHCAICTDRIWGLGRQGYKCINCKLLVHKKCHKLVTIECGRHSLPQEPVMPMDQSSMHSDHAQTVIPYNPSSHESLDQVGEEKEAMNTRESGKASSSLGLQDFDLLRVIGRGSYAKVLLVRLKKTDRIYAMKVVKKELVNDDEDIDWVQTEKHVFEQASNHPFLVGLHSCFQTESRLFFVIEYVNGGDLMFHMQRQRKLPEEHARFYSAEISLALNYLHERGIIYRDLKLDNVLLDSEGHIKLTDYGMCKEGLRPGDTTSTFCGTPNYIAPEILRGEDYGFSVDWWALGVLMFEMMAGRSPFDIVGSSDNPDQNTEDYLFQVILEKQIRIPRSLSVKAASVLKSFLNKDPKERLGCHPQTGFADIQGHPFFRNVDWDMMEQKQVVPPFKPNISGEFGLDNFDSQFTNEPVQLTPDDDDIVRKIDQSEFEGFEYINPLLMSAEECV

The next test concerns the target T2, KIT(V559D,T670I) (Homo sapiens, UniProt P10721, T670I/V559D).
T2 construct: purchased Eurofins DiscoverX KINOMEscan

A further test deals with T3, TEC (Homo sapiens, UniProt P42680).
T3 construct: purchased Eurofins DiscoverX KINOMEscan
T3 sequence (P42680 1-631): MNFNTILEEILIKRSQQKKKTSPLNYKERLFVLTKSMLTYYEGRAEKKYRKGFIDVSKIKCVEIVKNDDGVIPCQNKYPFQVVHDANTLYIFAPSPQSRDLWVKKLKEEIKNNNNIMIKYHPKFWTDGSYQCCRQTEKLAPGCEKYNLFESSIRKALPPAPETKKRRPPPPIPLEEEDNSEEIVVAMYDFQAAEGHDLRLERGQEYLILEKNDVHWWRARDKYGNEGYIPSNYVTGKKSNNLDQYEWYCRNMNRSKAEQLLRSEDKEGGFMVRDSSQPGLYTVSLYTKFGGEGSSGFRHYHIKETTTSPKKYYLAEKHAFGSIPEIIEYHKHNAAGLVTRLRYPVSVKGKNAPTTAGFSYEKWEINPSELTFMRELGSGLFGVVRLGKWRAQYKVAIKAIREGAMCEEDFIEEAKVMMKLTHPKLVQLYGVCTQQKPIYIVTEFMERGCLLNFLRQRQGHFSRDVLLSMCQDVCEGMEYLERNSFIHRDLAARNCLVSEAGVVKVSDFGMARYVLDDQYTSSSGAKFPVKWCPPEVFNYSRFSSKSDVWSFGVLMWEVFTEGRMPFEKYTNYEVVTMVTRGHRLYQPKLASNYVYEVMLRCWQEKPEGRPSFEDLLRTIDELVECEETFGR

For another test, the target named is T4, SRMS (Homo sapiens, UniProt Q9H3Y6).
T4 construct: purchased Eurofins DiscoverX KINOMEscan
T4 sequence (Q9H3Y6 whole entry): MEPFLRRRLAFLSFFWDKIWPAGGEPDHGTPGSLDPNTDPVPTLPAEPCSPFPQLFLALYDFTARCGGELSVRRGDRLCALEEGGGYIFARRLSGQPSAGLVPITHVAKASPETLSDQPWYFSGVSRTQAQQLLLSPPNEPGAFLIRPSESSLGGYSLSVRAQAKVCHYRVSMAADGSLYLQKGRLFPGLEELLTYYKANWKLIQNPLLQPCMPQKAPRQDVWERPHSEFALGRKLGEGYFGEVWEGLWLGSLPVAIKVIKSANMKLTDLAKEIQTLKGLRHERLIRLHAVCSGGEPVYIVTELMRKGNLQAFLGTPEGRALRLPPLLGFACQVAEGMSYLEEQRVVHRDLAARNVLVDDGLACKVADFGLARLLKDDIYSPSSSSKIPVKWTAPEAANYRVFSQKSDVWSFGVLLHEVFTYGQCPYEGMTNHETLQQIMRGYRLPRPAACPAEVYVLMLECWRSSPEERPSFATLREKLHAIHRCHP

For the next test, the target named is T5, ASK2 (Homo sapiens, UniProt O95382).
T5 construct: purchased Eurofins DiscoverX KINOMEscan
T5 sequence (O95382 1-1288): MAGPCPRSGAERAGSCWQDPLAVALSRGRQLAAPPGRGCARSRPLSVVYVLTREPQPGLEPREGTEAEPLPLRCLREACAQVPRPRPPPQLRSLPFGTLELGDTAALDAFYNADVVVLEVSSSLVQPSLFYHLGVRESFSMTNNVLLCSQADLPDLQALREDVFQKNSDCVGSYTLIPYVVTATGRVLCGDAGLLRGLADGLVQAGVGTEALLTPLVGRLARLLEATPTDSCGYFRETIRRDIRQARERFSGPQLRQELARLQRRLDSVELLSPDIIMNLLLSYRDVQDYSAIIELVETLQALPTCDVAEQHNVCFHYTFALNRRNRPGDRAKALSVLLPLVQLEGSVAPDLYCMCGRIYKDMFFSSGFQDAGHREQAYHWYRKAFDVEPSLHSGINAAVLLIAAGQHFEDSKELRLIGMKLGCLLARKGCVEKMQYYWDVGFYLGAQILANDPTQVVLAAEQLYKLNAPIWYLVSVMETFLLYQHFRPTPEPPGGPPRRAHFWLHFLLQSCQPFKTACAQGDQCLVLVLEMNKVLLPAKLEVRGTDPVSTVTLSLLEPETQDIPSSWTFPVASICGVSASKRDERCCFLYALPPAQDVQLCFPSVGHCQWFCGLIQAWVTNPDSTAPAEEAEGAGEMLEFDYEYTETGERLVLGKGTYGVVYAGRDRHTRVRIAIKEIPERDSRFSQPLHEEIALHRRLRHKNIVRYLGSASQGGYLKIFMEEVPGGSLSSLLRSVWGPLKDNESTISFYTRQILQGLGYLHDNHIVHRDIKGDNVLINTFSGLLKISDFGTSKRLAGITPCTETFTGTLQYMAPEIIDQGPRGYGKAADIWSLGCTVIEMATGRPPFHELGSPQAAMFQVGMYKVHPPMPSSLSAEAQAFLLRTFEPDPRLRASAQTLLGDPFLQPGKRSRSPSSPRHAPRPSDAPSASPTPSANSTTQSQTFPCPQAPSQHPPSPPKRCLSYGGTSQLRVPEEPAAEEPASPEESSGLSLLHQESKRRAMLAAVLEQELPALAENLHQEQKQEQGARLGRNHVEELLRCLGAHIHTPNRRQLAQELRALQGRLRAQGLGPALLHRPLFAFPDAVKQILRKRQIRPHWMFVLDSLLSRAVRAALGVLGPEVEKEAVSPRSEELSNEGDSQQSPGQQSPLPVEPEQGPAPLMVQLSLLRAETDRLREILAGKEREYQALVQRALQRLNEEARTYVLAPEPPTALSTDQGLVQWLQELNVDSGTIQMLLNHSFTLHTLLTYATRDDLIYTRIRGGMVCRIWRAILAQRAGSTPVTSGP

In the next test the target is T6, MARK1 (Homo sapiens, UniProt Q9P0L2).
T6 construct: purchased Eurofins DiscoverX KINOMEscan
T6 sequence (Q9P0L2 whole entry): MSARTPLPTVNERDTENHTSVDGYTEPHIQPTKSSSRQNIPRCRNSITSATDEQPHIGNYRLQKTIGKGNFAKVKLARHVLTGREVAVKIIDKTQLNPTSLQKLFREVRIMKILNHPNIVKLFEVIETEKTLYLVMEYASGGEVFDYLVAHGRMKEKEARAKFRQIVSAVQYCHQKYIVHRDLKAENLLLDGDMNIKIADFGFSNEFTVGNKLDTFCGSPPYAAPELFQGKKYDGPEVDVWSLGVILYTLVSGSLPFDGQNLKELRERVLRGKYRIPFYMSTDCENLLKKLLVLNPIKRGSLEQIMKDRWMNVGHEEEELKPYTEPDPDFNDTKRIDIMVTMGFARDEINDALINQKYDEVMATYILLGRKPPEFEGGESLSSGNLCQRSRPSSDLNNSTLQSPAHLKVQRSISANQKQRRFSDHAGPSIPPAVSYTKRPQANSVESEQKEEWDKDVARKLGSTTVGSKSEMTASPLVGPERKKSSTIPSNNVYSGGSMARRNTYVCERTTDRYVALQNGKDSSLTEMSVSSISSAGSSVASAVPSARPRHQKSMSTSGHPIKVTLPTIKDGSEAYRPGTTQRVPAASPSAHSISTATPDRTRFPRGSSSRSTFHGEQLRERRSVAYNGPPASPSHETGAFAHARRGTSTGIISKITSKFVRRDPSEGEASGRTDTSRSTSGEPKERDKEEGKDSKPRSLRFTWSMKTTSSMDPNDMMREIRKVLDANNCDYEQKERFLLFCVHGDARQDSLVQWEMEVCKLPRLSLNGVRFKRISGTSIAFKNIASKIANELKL

Each structure is given as a SMILES string.

T2 sequence (P10721 26-976 V559D/T670I): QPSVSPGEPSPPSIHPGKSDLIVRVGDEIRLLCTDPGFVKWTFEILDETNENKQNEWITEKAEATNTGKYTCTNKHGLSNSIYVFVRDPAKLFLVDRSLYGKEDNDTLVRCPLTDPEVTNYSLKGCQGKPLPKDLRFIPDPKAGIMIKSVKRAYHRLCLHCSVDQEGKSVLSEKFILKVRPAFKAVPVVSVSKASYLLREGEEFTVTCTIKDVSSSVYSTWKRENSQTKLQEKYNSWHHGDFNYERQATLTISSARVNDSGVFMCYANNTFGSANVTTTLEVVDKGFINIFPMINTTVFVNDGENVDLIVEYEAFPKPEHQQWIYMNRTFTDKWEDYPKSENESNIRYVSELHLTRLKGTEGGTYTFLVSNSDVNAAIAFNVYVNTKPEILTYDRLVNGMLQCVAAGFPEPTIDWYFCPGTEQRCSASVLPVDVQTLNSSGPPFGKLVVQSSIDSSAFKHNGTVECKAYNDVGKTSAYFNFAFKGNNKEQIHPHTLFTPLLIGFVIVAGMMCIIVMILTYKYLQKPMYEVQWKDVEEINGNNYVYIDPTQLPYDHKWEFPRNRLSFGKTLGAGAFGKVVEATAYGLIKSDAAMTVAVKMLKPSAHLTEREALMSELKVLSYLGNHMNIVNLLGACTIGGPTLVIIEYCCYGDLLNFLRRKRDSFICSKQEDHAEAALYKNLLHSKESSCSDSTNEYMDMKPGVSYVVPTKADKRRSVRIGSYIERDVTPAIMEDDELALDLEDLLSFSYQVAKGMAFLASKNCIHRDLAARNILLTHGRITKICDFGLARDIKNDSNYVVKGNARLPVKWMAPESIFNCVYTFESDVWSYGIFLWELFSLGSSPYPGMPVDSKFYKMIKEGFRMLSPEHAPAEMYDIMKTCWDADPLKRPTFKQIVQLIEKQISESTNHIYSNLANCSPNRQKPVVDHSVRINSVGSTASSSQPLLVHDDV

Take `Clc1cc(NCC2CC2)c2ncc(-c3ccc4[nH]ncc4c3)n2n1` [compound 2, 6-Chloro-N-(cyclopropylmethyl)-3-(1H-indazol-5-yl)imidazo[1,2-b]pyridazin-8-amine]: the remaining binding at 1 µM was 88% at PRKCI; 20% at KIT(V559D,T670I); 100% at TEC; 91% at SRMS; 83% on ASK2; 86% at MARK1.

Turning to `O=C(CN1CCOCC1)N[C@H]1CC[C@H](Nc2cc(Cl)nn3c(-c4ccc5[nH]ncc5c4)cnc23)CC1` [compound 26], the remaining binding at 1 µM at PRKCI is 100%; on KIT(V559D,T670I) it was 0.85%; on TEC it was 97%; on SRMS it was 86%; on ASK2, 96%; on MARK1, 94%.

In the case of `CN1CCC(CNc2cc(Cl)nn3c(-c4cc5nc(Nc6ccccc6)[nH]c5cc4F)cnc23)CC1` [compound 31, 6-Chloro-3-(6-fluoro-2-(phenylamino)-1H-benzo[d]imidazol-5-yl)-N-((1-methylpiperidin-4-yl)methyl)imidazo[1,2-b]pyridazin-8-amine], the remaining binding at 1 µM is 89% at PRKCI; 97% at KIT(V559D,T670I); 88% on TEC; 95% at SRMS; 100% on ASK2; 94% on MARK1.
